Test results from PMC4635571 (Journal of immunology (Baltimore, Md. : 1950), 2015).

Key:
naïve CD4+ T cells = assay type: cell-based, mouse
[1] = test system: Human peripheral blood mononuclear cells (PBMC); test: Cytokine production by human PBMC; assay type: cell-based
CD-1 mice = test: Anti-CD3-induced cytokines in mouse plasma; assay type: in vivo; conditions: 20 mg/kg i.p., anti-CD3 1hr or 6hr later, plasma 2hr post-anti-CD3
Rag2−/− hosts = test: CD4+ CD45RBhi T cell adoptive transfer model of colitis; assay type: in vivo
phosphorylated-PLCγ1 = test: In vivo target engagement assay; parameters: species or system mouse; conditions: 40 mg/kg oral, 2hr or 6hr post-treatment, ex vivo anti-CD3/CD28 stimulation
[2] = test system: HCT116 colorectal carcinoma cell line; test: Inhibition of proliferation of HCT116 cells; assay type: cell-based; conditions: read-out: IC50 of inhibition of proliferation; HCT116, general cytotoxicity
polarized CD4+ T cells [3] = test: P-selectin; assay type: cell-based, mouse
polarized CD4+ T cells [4] = test: Transwell cell migration assay; assay type: cell-based, mouse; conditions: 3hr, cells cultured with 25 or 50nM PRN694
ITK = conditions: versus e.g. BMS-509744 and BMS-488516; Fig. 1B

C=CC(=O)N1CCC[C@@H]1Cn1c(NC(=O)c2ccc(C(F)F)s2)nc2cc(CN[C@@H](C)C(C)(C)C)ccc21 [PRN694]
inhibition of IFN-γ production by TH1 cells (naïve CD4+ T cells; 25nM PRN694, TH1-polarizing conditions, 72hr, PMA/Ionomycin restimulation 5hr): > 50%
expression levels of transcription factors (T-bet, GATA-3, RORγt) (naïve CD4+ T cells; TH1, TH2, TH17 polarization with inhibitor): decreased
IL-2 production by in vitro polarized CD4+ T cells (naïve CD4+ T cells; all three lineages of T helper cells, 72hr): inhibited
inhibition of IL-4 production by TH2 cells (naïve CD4+ T cells; any of the doses tested, TH2-polarizing conditions, 72hr): < 50%
increase in IFN-γ, IL-6 and IL-2 induced by anti-CD3/CD28 ([1]; 20nM PRN694, 18hr): strongly inhibited
increase in IFN-γ, IL-6 and IL-2 induced by anti-CD3/CD28 ([1]; 5.0μM PRN694, 18hr): completely blocked
ability to inhibit IL-2 production on thapsigargin stimulation ([1]; PBMC stimulated with thapsigargin 10 μM, 18hr): strongly impaired
increase in plasma IFN-γ, IL-6 and IL-2 induced by anti-CD3 (CD-1 mice): inhibited
toxicity during long-term in vivo administration (Rag2−/− hosts; 7 week dosing time frame): no apparent toxicity
CD4+ T cell proportions in intestinal epithelium and LP versus vehicle (Rag2−/− hosts; 7 weeks post-transfer): significantly less
expression of integrin α4β7 and CCR6 on intestinal epithelial CD4+ T cells (Rag2−/− hosts; 7 weeks post-transfer): reduced
histological analysis of the colonic epithelium (Rag2−/− hosts; 7 weeks post-transfer, H&E): reduced inflammation
proportions of cells capable of producing IL-2 (Rag2−/− hosts; 7 weeks post-transfer, PMA/Ionomycin): reduced proportions
reduced colon length (Rag2−/− hosts; 7 weeks post-transfer, oral dosing): prevented
proportions of CD4+ T cells expressing Foxp3 (Rag2−/− hosts; all organs examined, 7 weeks post-transfer): significantly reduced
behavioral indications of toxicity (Rag2−/− hosts; long-term in vivo administration): no behavioral indications of drug-mediated toxicity
proportions of CD4+ T cells producing IFN-γ (Rag2−/− hosts; mesenteric LN, IEL and LP, 7 weeks post-transfer, PMA/Ionomycin): markedly reduced
weight change (disease progression) (Rag2−/− hosts; oral 40 mg/kg once a day or 20 mg/kg twice a day, 7 weeks): no weight loss
phosphorylation of PLCγ1 (phosphorylated-PLCγ1): completely blocked
IC50 [2]: 10 µM
P-selectin binding of TH1 and TH17 cells (polarized CD4+ T cells [3]; differentiated 72hr with 25 or 50nM PRN694): reduced P-selectin binding
P-selectin binding of TH2 cells (polarized CD4+ T cells [3]; only visible in the higher dose of inhibitor (50nM)): only a modest reduction
TH17 migration to CCL20 (polarized CD4+ T cells [4]; CCL20 100 ng/mL): reduced approximately two-fold
TH1 migration to CXCL11 (polarized CD4+ T cells [4]; CXCL11 100 ng/mL): inhibited
fold more potent in inhibiting ITK than previously-described ITK inhibitors (ITK): 63- to 320 fold
